Assay results: publication PMC6321168, “Comparative Study on Excretive Characterization of Main Components in Herb Pair Notoginseng-Safflower and Single Herbs by LC–MS/MS” (Pharmaceutics, 2018)

Experiment: Urinary excretion study in rats after oral NS, SF or CNS (LC–MS/MS)
Assay type: in vivo
Settings: for concentration at 2 h / concentration at 4 h / concentration at 8 h / concentration at 12 h / concentration at 24 h / concentration at 36 h / concentration at 48 h / concentration at 72 h / concentration at 96 h / concentration at 120 h / concentration at 6 h: male, Sprague Dawley, rat, urine, oral; for Accumulative excretion amount / Accumulative excretion percentage / Excretion amount: rat urine
Procedure: The animal room was set at constant temperature of 20 ± 2 °C with humidity of 50 ± 20% and 12/12 h light/dark cycle.
Eighteen male rats were fasted for 12 h before starting the experiment. The rats were divided into three groups at random (n = 6) and received NS (60 mg/kg), SF (50 mg/kg), and NS (60 mg/kg) + SF (50 mg/kg), respectively, by oral gavage. The rats were placed in separate metabolic cages. The urine samples were collected at 0–2, 2–4, 4–6, 6–8, 8–12, 12–24, 24–36, 36–48, 48–72, 72–96, and 96–120 h. The feces samples were collected at 0–4, 4–8, 8–12, 12–24, 24–36, 36–48, 48–72, 72–96, and 96–120 h. The urine volume was recorded and the dry feces were measured for each collection period. Samples were stored at −80 °C until analysis.
An aliquot of 200 μL urine sample was mixed with 10 μL of IS and evaporated to dryness with a ZLS-2 vacuum centrifugal concentrator (Herexi Co., Ltd., Changsha, Hunan, China). The residue was reconstituted in 100 μL of 50% methanol vortexed for 2 min and centrifuged at 12,000 rpm for 15 min. Finally, a 1 μL aliquot was injected for LC–MS analysis.
Ultra fast liquid chromatography (UFLC) analysis was performed using a Shimadzu UFLC system (DGU-20A3R Degasser; LC-20AD pump; SIL-20AXR Autosampler; CTO-20AC Column Oven) (Nakagyo-Ku, Koyoto, Japan). […] Because of the different endogenous substances in the urine and feces samples, different elution gradients were used to alleviate the matrix effects for the analytes.
The mass spectrometric detection was performed on an ABSciex 4500 Qtrap mass spectrometer (ABSciex, Foster City, CA, USA) equipped with a negative electrospray ionization (ESI) interface using multiple reaction monitoring (MRM). The MS parameters were optimized under the selected ion monitoring conditions as follows: curtain gas, 35 psi; ionspray voltage, 4500 V; turbo gas temperature, 450 °C; GS1, 45 psi; GS2, 45 psi. All data were acquired and analyzed by Analyst software (Versions 1.6.2) from ABSciex.
The accumulative excretion percentage was calculated for each analyte as follows. Excretion at time (t) = [concentration of the analyte (ng/mL) at t] × total urine (or feces) volume (mL) at t. The cumulative excretion up to time t (mg) was expressed as a percent (%) cumulative excretion by dividing by the total amount of the analyte ingested (mg): % Cumulative Excretion = 100 × (Σt excretiont) total ingested.

For `CC(C)=CCC[C@](C)(O[C@@H]1O[C@H](CO)[C@@H](O)[C@H](O)[C@H]1O)[C@H]1CC[C@]2(C)[C@@H]1[C@H](O)C[C@@H]1[C@@]3(C)CC[C@H](O)C(C)(C)[C@@H]3[C@@H](O[C@@H]3O[C@H](CO)[C@@H](O)[C@H](O)[C@H]3O)C[C@]12C` [ginsenoside Rg1], the concentration at 2 h (60 mg/kg, oral NS 60 mg/kg, 2 h) was 3360 ± 7020 ng/mL, the concentration at 4 h (60 mg/kg, oral NS 60 mg/kg, 4 h) was 1680 ± 1800 ng/mL and the concentration at 8 h (60 mg/kg, oral NS 60 mg/kg, 8 h) was 1140 ± 1230 ng/mL. For the same compound, the concentration at 12 h (60 mg/kg, oral NS 60 mg/kg, 12 h) was 727 ± 171 ng/mL, the concentration at 24 h (60 mg/kg, oral NS 60 mg/kg, 24 h) was 135 ± 209 ng/mL and the concentration at 36 h (60 mg/kg, oral NS 60 mg/kg, 36 h) was 115 ± 151 ng/mL. The concentration at 48 h (60 mg/kg, oral NS 60 mg/kg, 48 h) was 100 ± 171 ng/mL, the concentration at 72 h (60 mg/kg, oral NS 60 mg/kg, 72 h) was 178 ± 382 ng/mL and the concentration at 96 h (60 mg/kg, oral NS 60 mg/kg, 96 h) was 85 ± 159 ng/mL. It also gave a concentration at 120 h (60 mg/kg, oral NS 60 mg/kg, 120 h) of 59 ± 105 ng/mL, a concentration at 2 h (oral CNS 110 mg/kg, 2 h) of 1510 ± 1440 ng/mL and a concentration at 4 h (oral CNS 110 mg/kg, 4 h) of 1690 ± 2340 ng/mL. It also gave a concentration at 6 h (oral CNS 110 mg/kg, 6 h) of 544 ± 216 ng/mL, a concentration at 8 h (oral CNS 110 mg/kg, 8 h) of 835 ± 697 ng/mL and a concentration at 12 h (oral CNS 110 mg/kg, 12 h) of 789 ± 937 ng/mL. The concentration at 24 h (oral CNS 110 mg/kg, 24 h) was 2350 ± 5830 ng/mL, the concentration at 36 h (oral CNS 110 mg/kg, 36 h) was 228 ± 361 ng/mL and the concentration at 48 h (oral CNS 110 mg/kg, 48 h) was 65 ± 82 ng/mL. The concentration at 72 h (oral CNS 110 mg/kg, 72 h) was 93 ± 156 ng/mL, the concentration at 96 h (oral CNS 110 mg/kg, 96 h) was 46 ± 53 ng/mL and the concentration at 120 h (oral CNS 110 mg/kg, 120 h) was 80 ± 174 ng/mL. It also gave a concentration at 6 h (oral NS 60 mg/kg, 6 h) of 1440 ± 1460 ng/mL, an Accumulative excretion amount (oral CNS 110 mg/kg, 2 h) of 1.881 ± 1.001 µg and an Accumulative excretion percentage (oral CNS 110 mg/kg, 2 h) of 0.066±0.032%. For the same compound, the Excretion amount (oral CNS 110 mg/kg, 2 h) was 1.881 ± 1.001 µg, the Accumulative excretion amount (oral CNS 110 mg/kg, 4 h) was 3.382 ± 2.188 µg and the Accumulative excretion percentage (oral CNS 110 mg/kg, 4 h) was 0.111±0.072%. It also gave an Excretion amount (oral CNS 110 mg/kg, 4 h) of 2.002 ± 1.609 µg, an Accumulative excretion amount (oral CNS 110 mg/kg, 6 h) of 3.994 ± 2.061 µg and an Accumulative excretion percentage (oral CNS 110 mg/kg, 6 h) of 0.132±0.073%. For the same compound, the Excretion amount (oral CNS 110 mg/kg, 6 h) was 0.816 ± 0.264 µg, the Accumulative excretion amount (oral CNS 110 mg/kg, 8 h) was 4.725 ± 2.486 µg and the Accumulative excretion percentage (oral CNS 110 mg/kg, 8 h) was 0.155±0.084%. For the same compound, the Excretion amount (oral CNS 110 mg/kg, 8 h) was 1.169 ± 0.913 µg, the Accumulative excretion amount (oral CNS 110 mg/kg, 12 h) was 5.430 ± 2.374 µg and the Accumulative excretion percentage (oral CNS 110 mg/kg, 12 h) was 0.188±0.080%. For the same compound, the Excretion amount (oral CNS 110 mg/kg, 12 h) was 0.805 ± 0.300 µg, the Accumulative excretion amount (oral CNS 110 mg/kg, 24 h) was 8.052 ± 5.572 µg and the Accumulative excretion percentage (oral CNS 110 mg/kg, 24 h) was 0.263±0.182%. For the same compound, the Excretion amount (oral CNS 110 mg/kg, 24 h) was 2.622 ± 5.710 µg, the Accumulative excretion amount (oral CNS 110 mg/kg, 36 h) was 8.388 ± 5.927 µg and the Accumulative excretion percentage (oral CNS 110 mg/kg, 36 h) was 0.274±0.195%. It also gave an Excretion amount (oral CNS 110 mg/kg, 36 h) of 0.336 ± 0.421 µg, an Accumulative excretion amount (oral CNS 110 mg/kg, 48 h) of 8.689 ± 6.056 µg and an Accumulative excretion percentage (oral CNS 110 mg/kg, 48 h) of 0.285±0.202%. The Excretion amount (oral CNS 110 mg/kg, 48 h) was 0.301 ± 0.361 µg, the Accumulative excretion amount (oral CNS 110 mg/kg, 72 h) was 8.87 ± 6.051 µg and the Accumulative excretion percentage (oral CNS 110 mg/kg, 72 h) was 0.293±0.206%. For the same compound, the Excretion amount (oral CNS 110 mg/kg, 72 h) was 0.185 ± 0.312 µg, the Accumulative excretion amount (oral CNS 110 mg/kg, 96 h) was 8.966 ± 6.090 µg and the Accumulative excretion percentage (oral CNS 110 mg/kg, 96 h) was 0.292±0.204%. The Excretion amount (oral CNS 110 mg/kg, 96 h) was 0.091 ± 0.106 µg, the Accumulative excretion amount (oral CNS 110 mg/kg, 120 h) was 9.027 ± 6.117 µg and the Accumulative excretion percentage (oral CNS 110 mg/kg, 120 h) was 0.292±0.206%. For the same compound, the Excretion amount (oral CNS 110 mg/kg, 120 h) was 0.061 ± 0.081 µg, the Accumulative excretion amount (oral NS 60 mg/kg, 2 h) was 4.985 ± 1.411 µg and the Accumulative excretion percentage (oral NS 60 mg/kg, 2 h) was 0.142±0.045%. For the same compound, the Excretion amount (oral NS 60 mg/kg, 2 h) was 4.985 ± 1.411 µg, the Accumulative excretion amount (oral NS 60 mg/kg, 4 h) was 6.610 ± 2.052 µg and the Accumulative excretion percentage (oral NS 60 mg/kg, 4 h) was 0.193±0.061%. It also gave an Excretion amount (oral NS 60 mg/kg, 4 h) of 2.844 ± 0.973 µg, an Accumulative excretion amount (oral NS 60 mg/kg, 6 h) of 9.709 ± 2.893 µg and an Accumulative excretion percentage (oral NS 60 mg/kg, 6 h) of 0.285±0.086%. It also gave an Excretion amount (oral NS 60 mg/kg, 6 h) of 3.616 ± 2.575 µg, an Accumulative excretion amount (oral NS 60 mg/kg, 8 h) of 11.931 ± 4.568 µg and an Accumulative excretion percentage (oral NS 60 mg/kg, 8 h) of 0.348±0.137%. For the same compound, the Excretion amount (oral NS 60 mg/kg, 8 h) was 3.890 ± 2.477 µg, the Accumulative excretion amount (oral NS 60 mg/kg, 12 h) was 15.061 ± 7.022 µg and the Accumulative excretion percentage (oral NS 60 mg/kg, 12 h) was 0.439±0.200%. It also gave an Excretion amount (oral NS 60 mg/kg, 12 h) of 3.130 ± 2.715 µg, an Accumulative excretion amount (oral NS 60 mg/kg, 24 h) of 15.697 ± 7.182 µg and an Accumulative excretion percentage (oral NS 60 mg/kg, 24 h) of 0.451±0.202%. The Excretion amount (oral NS 60 mg/kg, 24 h) was 0.636 ± 0.590 µg, the Accumulative excretion amount (oral NS 60 mg/kg, 36 h) was 16.042 ± 7.062 µg and the Accumulative excretion percentage (oral NS 60 mg/kg, 36 h) was 0.463±0.204%. The Excretion amount (oral NS 60 mg/kg, 36 h) was 0.402 ± 0.338 µg, the Accumulative excretion percentage (oral NS 60 mg/kg, 48 h) was 0.465±0.204% and the Excretion amount (oral NS 60 mg/kg, 48 h) was 0.285 ± 0.276 µg. It also gave an Accumulative excretion amount (oral NS 60 mg/kg, 72 h) of 16.417 ± 7.147 µg, an Accumulative excretion percentage (oral NS 60 mg/kg, 72 h) of 0.476±0.208% and an Excretion amount (oral NS 60 mg/kg, 72 h) of 0.091 ± 0.014 µg. For the same compound, the Excretion amount (oral NS 60 mg/kg, 96 h) was 0.062 ± 0.110 µg and the Excretion amount (oral NS 60 mg/kg, 120 h) was 0.062 ± 0.148 µg.
